Assay results: publication PMC10112881 (Cell reports, 2023)
Structures can show the parent of a compound that is named as a salt.

What was measured:
rat cortical neurons [1] = assay: Spinogenesis in cultured cortical neurons; type: cell-based; conditions: 10 μM, 3 h at DIV18, read 24 h after onset
Open field test = type: in vivo, C57BL/6J mice; conditions: 0.125 mg/kg alone or with 2-Br-LSD 1 mg/kg
rat cortical neurons [2] = assay: Dendritogenesis; type: cell-based
Forced swim test = type: in vivo, C57BL/6J mice; conditions: 0.125 mg/kg before 2-Br-LSD 1 mg/kg, females and males
head-twitch response [3] = assay: Head-twitch response
[4] = system: rest of the histamine and muscarinic GPCRs; assay: G protein dissociation BRET assay; type: cell-based, human
33 human aminergic GPCRs = assay: Pan-aminergic GPCR functional screen; type: cell-based; conditions: of 33 aminergic GPCR targets tested
5-HT4 = 5-HT4 (Homo sapiens, UniProt Q13639); assay: G protein dissociation BRET assay; type: cell-based
Sequence of 5-HT4 (Q13639 whole entry): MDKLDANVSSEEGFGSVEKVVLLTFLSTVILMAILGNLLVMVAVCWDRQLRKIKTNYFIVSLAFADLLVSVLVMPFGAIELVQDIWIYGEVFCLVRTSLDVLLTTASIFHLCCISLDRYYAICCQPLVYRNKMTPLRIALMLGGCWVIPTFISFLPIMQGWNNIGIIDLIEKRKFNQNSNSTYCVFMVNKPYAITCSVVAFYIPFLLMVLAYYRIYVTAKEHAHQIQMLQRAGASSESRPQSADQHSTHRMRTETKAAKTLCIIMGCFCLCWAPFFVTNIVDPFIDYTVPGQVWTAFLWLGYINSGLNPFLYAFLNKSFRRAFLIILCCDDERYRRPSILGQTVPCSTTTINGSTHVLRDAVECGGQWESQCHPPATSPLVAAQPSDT

D3 = D3 (Homo sapiens, UniProt P35462); assay: G protein dissociation BRET assay; type: cell-based; conditions: relative to dopamine
Sequence of D3 (P35462 whole entry): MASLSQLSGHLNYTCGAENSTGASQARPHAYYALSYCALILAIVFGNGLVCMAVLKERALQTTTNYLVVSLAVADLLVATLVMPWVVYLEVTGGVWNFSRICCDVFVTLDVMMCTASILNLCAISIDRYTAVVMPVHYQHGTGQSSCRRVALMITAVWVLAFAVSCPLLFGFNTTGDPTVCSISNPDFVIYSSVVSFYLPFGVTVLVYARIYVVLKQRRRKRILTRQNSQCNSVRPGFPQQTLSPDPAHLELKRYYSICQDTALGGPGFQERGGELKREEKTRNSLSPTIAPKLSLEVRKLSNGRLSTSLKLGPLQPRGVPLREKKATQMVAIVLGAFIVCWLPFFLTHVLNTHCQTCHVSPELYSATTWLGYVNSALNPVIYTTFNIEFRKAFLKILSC

D1/5 subtypes = assay: G protein dissociation BRET assay; type: cell-based, human
HTR induced by DOI [5] = assay: Tolerance to DOI-induced HTR after repeated treatment; conditions: 10 mg/kg/day IP 7 days, DOI 1 mg/kg challenge 24 h later
HTR induced by DOI [6] = assay: Blockade of DOI-induced head-twitch response; conditions: 0.025 or 0.25 mg/kg, DOI 1 mg/kg
head-twitch response [7] = conditions: cited from earlier work

Q: With CNC1(c2ccccc2Cl)CCCCC1=O (stereo not drawn) [ketamine, Ketamine hydrochloride, reference compound] as the compound, how does the spine density (rat cortical neurons [1]) read?
A: Its spine density is “spine density increased”.

Q: With COc1cccc([C@H](O)C2CCN(CCc3ccc(F)cc3)CC2)c1OC [Vol, volinanserin, reference compound] as the compound, how does the “locomotion in the OF” value (Open field test) read?
A: The value was “Neither Vol nor a combination of Vol and 2-Br-LSD affected locomotion”.

Q: What about the “dendritic arbor complexity, administered alone” value (rat cortical neurons [2]; 0.1–1 μM) of the same compound?
A: Its value is “did not change any parameter linked to dendritic arbor complexity”.

Q: What about the “effect of pre-treatment on 2-Br-LSD-induced total dendrite length” value (rat cortical neurons [2]; before 2-Br-LSD 1 μM) of the same compound?
A: Its value is “blocked the increase in total dendrite length”.

Q: What about the “effect of pre-treatment on 2-Br-LSD decrease in immobility” value (Forced swim test) of the same compound?
A: Its value is “blocked the decrease in immobility”.

Q: Which results are given for CCN(CC)C(=O)[C@@H]1C=C2c3cccc4[nH]cc(c34)C[C@H]2N(C)C1.CCN(CC)C(=O)[C@@H]1C=C2c3cccc4[nH]cc(c34)C[C@H]2N(C)C1.O=C(O)C(O)C(O)C(=O)O [LSD, (+)-lysergic acid diethylamide (2:1) (+)-tartrate, reference compound]?
A: induction of the HTR (head-twitch response [3]; 0.1 mg/kg IP, male C57BL/6J mice, 60 min): significant increase in HTR counts; agonism or antagonism at the rest of the histamine and muscarinic GPCRs [4]: neither 2-Br-LSD nor LSD possessed weak agonism or antagonism; number of aminergic GPCR targets with agonist activity (33 human aminergic GPCRs): 20; activity at 5-HT4 (5-HT4): lack potent agonist or antagonist activity; EMAX (D3): 75%; agonism at D1/5 subtypes (D1/5 subtypes): demonstrates agonist activity

Q: Which “tolerance on HTR after repeated treatment” value (HTR induced by DOI [5]) does the source give for COc1cc(CC(C)N)c(OC)cc1I.Cl (racemic) [DOI, (±)-2,5-Dimethoxy-4-iodoamphetamine hydrochloride, reference compound] here?
A: Its value is “significant degree of tachyphylaxis”.

Q: Which “reduction of the response to DOI” value (HTR induced by DOI [6]) does the source give for CCCN1CCC[C@@H]2Cc3n[nH]cc3C[C@H]21 [(–)-quinpirole, (–)-quinpirole hydrochloride, reference compound] here?
A: Its value is ~ 20%.

Q: And the “effect on the HTR induced by LSD” value (head-twitch response [7])?
A: The value was “does not alter the HTR”.

Q: With COc1ccccc1N1CCN(CCN(C(=O)C2CCCCC2)c2ccccn2)CC1.O=C(O)/C=C\C(=O)O [WAY-100,635, N-[2-[4-(2-Methoxyphenyl)-1-piperazinyl]ethyl]-N-(2-pyridinyl)cyclohexanecarboxamide maleate, reference compound] as the compound, how does the “effect of pre-treatment on the response to 2-Br-LSD in the HTR assay” value (head-twitch response [3]; 1 mg/kg WAY-100,635, then 2-Br-LSD 3 mg/kg) read?
A: Its value is “had no effect”.
